We go through 2 compounds from patent publication US10927136B2, “Phosphorus prodrugs of pyrazolo-substituted pyrimidine sGC stimulators” (Cyclerion Therapeutics, Inc., priority 2016, dated 2021).

The nature of the data set: Dog PK following IV and oral dosing. It is filed as in vivo, male Beagle dogs. Set-up: half-life / clearance / AUC(0-inf): dose or concentration left out as unconfirmed. Here is the method: PK in dogs was determined following IV and oral dosing.
For the oral (PO) experiments, two groups of 5 male Beagle dogs each were used. […] IV doses were administered through an indwelling catheter in the cephalic vein. Following dose administration, the catheter was flushed with ca. 3 mL of saline. Oral suspension doses were delivered to the stomach using a syringe and gavage tube. Following oral dosage administration, the gavage tube was flushed with approximately 10 mL of water to ensure complete delivery of the full dose.
Plasma and urine samples were collected as follows: for the PO experiments, samples were collected at 15 min, 30 min, 1 hour, 2 hours, 3 hours, 4 hours, 6 hours, 8 hours, 24 hours, 32 hours and 48 hours post-dosing; for the IV experiments, samples were collected at 2 min, 5 min, 15 min, 30 min, 1 hour, 2 hours, 3 hours, 4 hours, 6 hours, 8 hours, 24 hours, 32 hours and 48 hours post-dosing. Blood samples (2 mL) were collected from the jugular, cephalic or saphenous veins. These samples were kept on ice until processed for plasma. Blood samples were centrifuged at 3200 rpm for 10 minutes at approximately 5° C. within 1 hour of collection. Plasma was split into two approximately equal aliquots, and directly transferred to a 96-well plate tube (1.1 mL). Plug caps were placed on the tubes and the tubes frozen at approximately −70° C. and stored until analysis.
Urine was collected from each animal by diversion from a urine collection pan placed beneath the cage of each animal into an appropriate collection container, surrounded by wet ice or ice packs throughout the collection. The total volume of urine collected at each interval was measured and recorded and a single 10 mL aliquot was collected and stored frozen at approximately −70° C. until analysis.
Plasma and urine were collected and analyzed for the presence of Compound I-1 and Intermediate 3 derived from Compound I-1.
Intermediate 3, Compound I-1 and the internal standard (IS, Compound Z) were extracted from plasma by precipitation. Samples were analyzed using liquid chromatography (LC) with tandem mass spectrometric detection (MS/MS) using electrospray ionization. The standard curve range was from 0.1 to 400 ng/mL.
Thawed plasma samples and the required amount of plasma for standards, blanks and dilutions. Prepared crash solution: room temp ACN containing 1 ng/mL Compound Z as Internal Standard. Created a 1× mixed (Intermediate 3 and Compound I-1) standard curve by diluting the 100× stocks (5 uL of each 100× standard into 490 uL of plasma). Transferred 50 uL of each plasma sample/dilution, standard, or blank. Added 200 uL of the crash solution containing IS. Vortexed for 5 minutes. Centrifuged at 16,000 g at room temperature for 10 min. Transferred 200 uL of each supernatant to a plate. Dried under nitrogen in a TurboVap at 55° C. Resuspended each sample in 50 uL of 0.1% Formic Acid, covered and vortexed. Analyzed by LC-MS/MS.

Where [1] appears, read: male, Beagle, plasma, dog, Compound I-1 0.36 mpk IV in PBS, analyte Compound I-1.
Setting [2] is: male, Beagle, plasma, dog PO, Intermediate 3 in PEG400 capsules (2 mg/kg).

With `O=P(O)(O)OC(CNc1nc(-c2cc(-c3ccon3)n(Cc3ccccc3F)n2)ncc1F)(C(F)(F)F)C(F)(F)F` [Compound I-1], the “Vol. of Dist” value (dog, Compound I-1 0.36 mpk IV in PBS, analyte Compound I-1) is reported as 0.09 ± 0.03 L/kg. For the same compound, the “average conversion to the parent” value (dog, Compound I-1 administered IV) came out at 95%. For the same compound, under “dog, Compound I-1 dosed IV in PBS”, the “AUC compared with parent dosed in PEG” value was “comparable AUC to Intermediate 3”. In addition, the “prodrug observed in plasma” value (dog, after PO administration of Compound I-1) is recorded as “Low levels”. Besides, the “prodrug found in urine” value (dog, after dosing of Compound I-1) was “Negligible amounts”. The half-life (male, Beagle, dog, plasma, iv, Compound I-1 IV in PBS, analyte Compound I-1) is ~15 min. Under setting [1], the AUC(0-inf) was determined as 1550 ± 601 ng·h/mL, the peak level (Cmax) was 5110 ± 2150 ng/mL and the clearance was found to be 8.3 ± 3.1 mL/min/kg.

Turning to `OC(CNc1nc(-c2cc(-c3ccon3)n(Cc3ccccc3F)n2)ncc1F)(C(F)(F)F)C(F)(F)F` [Intermediate 3], the “Cmax/C24 (ratio)” value (dog PO, Intermediate 3 in PEG400 capsules (2 mg/kg)) was 3.6 ± 1.1 ratio. Moreover, under setting [2], the AUC was determined as 5190 ± 1410 ng·h/mL, the highest level (Cmax) was 307 ± 116 ng/mL and the Tmax was found to be 90 ± 72 min. In addition, where the note is “male, Beagle, plasma, dog PO, Intermediate 3 in PEG400 capsules (2 mg/kg), read-out: Bioavailability (% F)”, the bioavailability was determined as 64 ± 12.5%.
